Non-standard residues stand in square brackets, D forms with d. No end group written: not given here. hCys = N[C@@H](CCS)C(=O)O; Orn = NCCC[C@H](N)C(=O)O
Key:
[1] = tested on: hMSC-Human Mesenchymal Stem Cells; assay: Effect of maintaining MSC undifferentiated potency (gene expression); format: cell-based; conditions: cyclic peptide complex 10 nmol/L, bFGF 1 nmol/L, normalized to 1 nmol/L bFGF = 1, FIG. 4
Method: The effect of maintaining mesenchymal stem cell (MSC) undifferentiated potency of the cyclic peptide complex was evaluated.
MSC was prepared in the same manner as in Example 7.
The evaluation of the effect of maintaining the MSC undifferentiated potency was performed by the following method. First, a culture medium (hereinafter, referred to as a custom culture medium) in which bFGF was removed from PRIME-XV MSC Expansion XSFM (FUJIFILM Irvine Scientific, Inc., 91149) was prepared. Next, Prime-XV Human Fibronectin (FUJIFILM Irvine Scientific, Inc., 31002) was dissolved in PBS (Fujifilm Wako Pure Chemical Corporation, 164-23551), 2 μg/cm^2 of the solution was added to a 12-well plate used for proliferation, and the 12-well plate was allowed to stand at room temperature for 3 hours to coat the 12-well plate with fibronectin. Thereafter, the MSCs subjected to the subculture were peeled using Tryple Express (Thermo, 12604-013), washed once with a custom culture medium, suspended in a custom culture medium in which a cyclic peptide complex or bFGF (R&D Systems, 3718-GMP) was diluted to final concentrations of 10 nmol/L and 1 nmol/L, and seeded on a 12-well plate coated with fibronectin. In this case, conditions in which the cyclic peptide complex and bFGF were not added as a negative control were prepared. After culturing at 37° C. (5% CO2) for 2 nights, the culture medium was replaced by removing the supernatant of the culture medium and adding the same amount of a culture medium prepared to have the same composition as the removed culture medium. After further culturing at 37° C. (5% CO2) for 2 nights, RNA was extracted using an RNeasy Plus Mini Kit (Qiagen, 74136) according to the manufacturer's protocol. […] The expression level of each gene was normalized by setting the expression level of the well to which 1 nmol/L bFGF was added to 1.

Bovine myoblasts = assay: Bovine myoblast proliferation-promoting effect; format: cell-based, Japanese Black cattle; conditions: 0.03 to 10 nmol/L complex versus 30 ng/mL bFGF, 4 days; FIG. 5
Method: The bovine cells (myoblasts) proliferation-promoting effect of the cyclic peptide complex was evaluated.
Bovine myoblasts were separated from bovine muscle tissue by the following method. First, muscle tissue of Japanese Black cattle was finely chopped in HBSS(−) (phenol red-free) (FUJIFILM Wako Pure Chemical Corporation, 085-09355), and then pronase from Streptomyces griseus (Sigma-Aldrich, 10165921001) was added thereto to a final concentration of 1 mg/mL, and the mixture was allowed to stand at 37° C. for 1 hour. After allowing to stand, HBSS containing 10% FBS was added thereto, and the cells were acquired by centrifugation. The acquired cells were suspended in D-MEM (high glucose) (containing L-glutamine and phenol red) (FUJIFILM Wako Pure Chemical Corporation, 044-29765) containing 10% final concentration of bovine serum and 30 ng/mL bFGF. Suspended cells were cultured in a culture flask coated with an iMatrix-511 solution (FUJIFILM Wako Pure Chemical Corporation, 381-07363) at 0.55 μg/cm^2. […]
The evaluation of the proliferation-promoting effect on bovine myoblasts was performed by the following method. […] The number of viable cells was calculated from the imaging data and normalized by setting the number of viable cells in the well to which 30 ng/mL bFGF was added to 100, and setting the number of viable cells in the negative control well to 0.

[2] = tested on: hMSC-Human Mesenchymal Stem Cells; assay: Mesenchymal stem cell (MSC) proliferation-promoting effect; format: cell-based; conditions: 0.001 to 3 nmol/L, compared with bFGF at the same molar ratio; FIG. 3
Method: The mesenchymal stem cell (MSC) proliferation-promoting effect of the cyclic peptide complex was evaluated.
The MSC was activated and subcultured according to the recommended protocol of FUJIFILM Irvine Scientific, Inc. using hMSC-Human Mesenchymal Stem Cells (Lonza, PT-2501) and PRIME-XV MSC Expansion XSFM (FUJIFILM Irvine Scientific, Inc., 91149) as a culture medium. MSCs that had been subcultured 1 to 4 times were used for the evaluation.
The evaluation of the proliferation-promoting effect of MSC was performed by the following method. First, a culture medium (hereinafter, referred to as a custom culture medium) in which bFGF was removed from PRIME-XV MSC Expansion XSFM (FUJIFILM Irvine Scientific, Inc., 91149) was prepared. Next, Prime-XV Human Fibronectin (FUJIFILM Irvine Scientific, Inc., 31002) was dissolved in PBS (Fujifilm Wako Pure Chemical Corporation, 164-23551), 2 μg/cm^2 of the solution was added to a 96-well plate used for evaluation, and the 96-well plate was allowed to stand at room temperature for 3 hours to coat the 96-well plate with fibronectin. […] The number of viable cells was calculated from the imaging data and normalized by setting the number of viable cells in the well to which 1 nmol/L bFGF was added to 100, and setting the number of viable cells in the negative control well to 0.

## F-(Orn(acetyl))-VYTFDAHAHSLDAALN-(Hcy)-I (F[Orn]VYTFDAHAHSLDAALN[hCys]IF[Orn]VYTFDAHAHSLDAALN[hCys]I-NH2; thioether (positions not given here); not fully specified (residues 2, 22, bridges); also: dimer of two 20-mers crosslinked via Bis-NHS-PEG13 between side-chain amino groups, C-terminal amide on each monomer) [SEQ ID NO: 346, cyclic peptide complex; C-terminal amidation, amide crosslinking between side chain amino groups of N via Bis-NHS-PEG13]
[1]
  expression level of Sox2: same degree of a gene expression level as bFGF
Bovine myoblasts
  proliferation-promoting effect on bovine myoblasts: comparable to or higher than that of bFGF
[2]
  MSC proliferation-promoting effect: same degree of MSC proliferation-promoting effect as bFGF

— patent publication US20260008817A1, “CYCLIC PEPTIDE OR SALT THEREOF, AND USES THEREOF” (FUJIFILM Corporation, priority 2023, published 2026)
